# Experimental data as given in patent US20180284095A1, “BIOMARKERS ASSOCIATED WITH LSD1 INHIBITORS AND USES THEREOF” (Oryzon Genomics, S.A., priority 2015, published 2018).
# Legend:
# [1] = target: T1, Human recombinant LSD1 protein (Homo sapiens, UniProt O60341); experiment: LSD1 in vitro biochemical assay (Amplex Red, di-methylated H3-K4 peptide)
# T1 construct: amino acids 158-end with N-terminal GST tag; purchased BPS Bioscience Inc 50100
# Excerpt: The inhibitory activity of a compound of interest against LSD1 can be tested using the method described below: Human recombinant LSD1 protein from BPS Bioscience Inc (catalog reference number 50100: human recombinant LSD1, GenBank accession no. NM_015013, amino acids 158-end with N-terminal GST tag, MW: 103 kDa) was used. In order to monitor LSD1 enzymatic activity and/or its inhibition rate by a test compound, di-methylated H3-K4 peptide (Anaspec) was chosen as a substrate. The demethylase activity was estimated, under aerobic conditions, by measuring the release of H2O2 produced during the catalytic process, using the Amplex® Red hydrogen peroxide/peroxidase assay kit (Invitrogen).
# Briefly, a fixed amount of LSD1 was incubated on ice for 15 minutes, in the absence and/or in the presence of at least eight 3-fold serial dilutions of the respective inhibitor (e.g., from 0 to 75 μM, depending on the inhibitor strength). Tranylcypromine (Biomol International) was used as a control for inhibition. Within the experiment, each concentration of inhibitor was tested in duplicate. After leaving the enzyme interacting with the inhibitor, KM of di-methylated H3-K4 peptide was added to each reaction and the experiment was left for 30 minutes at 37° C. in the dark. The enzymatic reactions were set up in a 50 mM sodium phosphate, pH 7.4 buffer. At the end of the incubation, Amplex® Red reagent and horseradish peroxidase (HPR) solution were added to the reaction according to the recommendations provided by the supplier (Invitrogen), and left to incubate for 5 extra minutes at room temperature in the dark. A 1 μM H2O2 solution was used as a control of the kit efficiency. The conversion of the Amplex® Red reagent to resorufin due to the presence of H2O2 in the assay, was monitored by fluorescence (excitation at 540 nm, emission at 590 nm) using a microplate reader (Infinite 200, Tecan). Arbitrary units were used to measure level of H2O2 produced in the absence and/or in the presence of inhibitor. The maximum demethylase activity of LSD1 was obtained in the absence of inhibitor and corrected for background fluorescence in the absence of LSD1. The IC50 value of each inhibitor was calculated with GraphPad Prism Software.
# [2] = target: T2, Human recombinant monoamine oxidase MAO-A (Homo sapiens, UniProt P21397); experiment: MAO-A fluorescence-based kynuramine assay; type: biochemical
# T2 construct: purchased Sigma Aldrich
# T2 sequence (P21397 1-527): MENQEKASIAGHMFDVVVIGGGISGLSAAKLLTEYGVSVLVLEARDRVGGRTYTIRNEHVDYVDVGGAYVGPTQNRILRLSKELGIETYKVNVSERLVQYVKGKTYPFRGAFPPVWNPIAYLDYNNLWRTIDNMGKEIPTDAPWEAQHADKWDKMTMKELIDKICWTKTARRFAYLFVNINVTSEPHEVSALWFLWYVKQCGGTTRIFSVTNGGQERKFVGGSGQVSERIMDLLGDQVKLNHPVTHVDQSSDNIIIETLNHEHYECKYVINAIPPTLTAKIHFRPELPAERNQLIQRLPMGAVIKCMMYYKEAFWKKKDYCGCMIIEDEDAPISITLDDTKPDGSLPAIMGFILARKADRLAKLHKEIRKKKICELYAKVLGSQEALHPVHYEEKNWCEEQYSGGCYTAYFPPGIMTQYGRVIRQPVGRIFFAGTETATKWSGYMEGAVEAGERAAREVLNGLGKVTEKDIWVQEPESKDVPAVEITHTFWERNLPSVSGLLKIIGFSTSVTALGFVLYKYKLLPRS
# Excerpt: LSD1 has a fair degree of structural similarity and amino acid identity/homology with the flavin-dependent amine oxidases monoamine oxidase A (MAO-A) and B (MAO-B). To determine the level of selectivity of a LSD1 inhibitor versus MAO-A and MAO-B, the inhibitory activity of a compound of interest against MAO-A and MAO-B can be tested using the method described below: Human recombinant monoamine oxidase proteins MAO-A and MAO-B were purchased from Sigma Aldrich.
# MAOs catalyze the oxidative deamination of primary, secondary and tertiary amines. In order to monitor MAO enzymatic activities and/or their inhibition rate by inhibitor(s) of interest, a fluorescence-based (inhibitor)-screening assay was set up. 3-(2-Aminophenyl)-3-oxopropanamine (kynuramine dihydrobromide, Sigma Aldrich), a non fluorescent compound was chosen as a substrate. Kynuramine is a non-specific substrate for both MAO-A and MAO-B activities. While undergoing oxidative deamination by MAO activities, kynuramine is converted into 4-hydroxyquinoline (4-HQ), a resulting fluorescent product.
# The monoamine oxidase activity was estimated by measuring the conversion of kynuramine into 4-hydroxyquinoline. Assays were conducted in 96-well black plates with clear bottom (Corning) in a final volume of 100 μL. The assay buffer was 100 mM HEPES, pH 7.5. Each experiment was performed in duplicate within the same experiment.
# Briefly, a fixed amount of MAO was incubated on ice for 15 minutes in the reaction buffer, in the absence and/or in the presence of at least eight 3-fold serial dilutions each. Clorgyline and Deprenyl (Sigma Aldrich) was used as a control for specific inhibition of MAO-A and MAO-B respectively.
# After leaving the enzyme(s) interacting with the inhibitor, KM of kynuramine was added to each reaction for MAO-B and MAO-A assay respectively, and the reaction was left for 1 hour at 37° C. in the dark. The oxidative deamination of the substrate was stopped by adding 50 μL of NaOH 2N. The conversion of kynuramine to 4-hydroxyquinoline, was monitored by fluorescence (excitation at 320 nm, emission at 360 nm) using a microplate reader (Infinite 200, Tecan). Arbitrary units were used to measure levels of fluorescence produced in the absence and/or in the presence of inhibitor.
# The maximum of oxidative deamination activity was obtained by measuring the amount of 4-hydroxyquinoline formed from kynuramine deamination in the absence of inhibitor and corrected for background fluorescence in the absence of MAO enzymes. The IC50 values of each inhibitor were calculated with GraphPad Prism Software.
IC50 [2] [µM],Compound,IC50 [1] [µM]
2.3,"NC(=O)CN[C@H]1C[C@@H]1c1ccc(OCc2ccccc2)cc1 (racemic) [Compound 3, 2-(((trans)-2-(4-(benzyloxy)phenyl)cyclopropyl)amino)acetamide]",0.16
4.6,"CN1CCN(C(=O)CN[C@H]2C[C@@H]2c2ccc(OCc3ccccc3)cc2)CC1 (racemic) [Compound 4, 2-(((trans)-2-(4-(benzyloxy)phenyl)cyclopropyl)amino)-1-(4-methylpiperazin-1-yl)ethan-1-one]",–
3.4,"N[C@H]1CCN(CCN[C@H]2C[C@@H]2c2ccc(-c3cccc(C(F)(F)F)c3)cc2)C1 (racemic) [Compound 5, (S)-1-(2-(((trans)-2-(3′-(trifluoromethyl)-[1,1′-biphenyl]-4-yl)cyclopropyl)amino)ethyl)pyrrolidin-3-amine]",0.06

Compound,IC50 [2] [µM],IC50 [1] [µM]
"(+) 5-((((trans)-2-(4-(benzyloxy)phenyl)cyclopropyl)amino)methyl)-1,3,4-oxadiazol-2-amine [Compound 2]",3.8,2.3
"(−) 5-((((trans)-2-(4-(benzyloxy)phenyl)cyclopropyl)amino)methyl)-1,3,4-oxadiazol-2-amine [Compound 1]",5.3,0.09
